Assay results: patent publication US8853227B2, “Methotrexate adjuvants to reduce toxicity and methods for using the same” (Tosk, Incorporated, priority 2008, dated 2014)

What was measured:
Drosophila melanogaster = test: Fly Study I (protection from MTX-induced lethality); format: in vivo; details: for Flies Alive (Number): Fly Study I method, test compound + MTX (MTX Alone: no adjuvant), Table 3
Method: In this study, Drosophila melanogaster eggs (50 eggs per vial) were treated with either 0.005 mg TK-112690+0.4 mg MTX (Group 1), 0.01 mg TK-112690+0.4 mg MTX (Group 2), 0.04 mg TK-112690+0.4 mg MTX (Group 3), 0.1 mg TK-112690+0.4 mg MTX (Group 4), 0.4 mg MTX alone (Group 5) or saline blank (Group 6). Two vials of eggs for each dose group were evaluated for viability (viable flies plus pupae).
The efficacy of cancer chemotherapy can be improved if agents are available to reduce the adverse events associated with treatment with cytotoxic agents. To this end, Drosophila melanogaster (commonly know as the fruit fly) is an ideal organism to screen chemical compounds for such side-effect-reducing agents. This study is aimed at finding a dose of a 2,2′-anhydropyrimidine test article that protects against MTX-induced lethality in insects.
Increasing amounts of a 2,2′-anhydropyrimidine test article (typically 0.03 to 0.1 mg) are mixed in an aqueous solution with 0.3 (or 0.4) mg MTX. Four milliliters (mL) of a 2,2′-anhydropyrimidine test article+MTX solutions are added to an appropriate amount of instant fly medium. Fruit fly eggs are added to a 2,2′-anhydropyrimidine test article+MTX treated medium and incubated for up to 31 days. After the 31 day incubation, each assay is scored by the number of mature fly and pupae per vial.
The assays are set up in clear sterile polystyrene narrow diameter vials from Applied Scientific (Hampton, N.H.). Vials are stored in trays and incubated in a darkened 25° C. incubator.
Reagents and materials used are: 50 mg/mL MTX in H2O (pH 8), 20 mg/mL of the 2,2′-anhydropyrimidine test article in H2O, water, sterile polystyrene narrow diameter vials from Applied Scientific, Instant Drosophila Food Medium, Oregon-R Drosophila melanogaster, 25° C. incubator, and 15 mL polystyrene conical tubes
Each assay is performed in a separate fly vial. Increasing amounts of a 2,2′-anhydropyrimidine (0.005 to 1.0 mg) are tested for MTX side-effect-reduction on fly eggs. Amounts of the 2,2′-anhydropyrimidine test article are drawn from a 20 mg/mL stock solution dissolved in water. Nine mL of the 2,2′-anhydropyrimidine+0.3 (or 0.4) mg MTX solutions are pre-mixed with water in a 15 mL conical tube. Duplicate assays receive 4 mL of the 2,2′-anhydropyrimidine test article+0.3 (or 0.4) mg MTX solutions. Pre-measured amounts of instant drosophila medium are added to each assay to achieve optimal hydration level. Controls are (1) 4 mL water alone and (2) 0.3 (or 0.4) mg MTX alone. Precisely 50 fly eggs aged for ˜18 hours are added to each assay. Assays are capped with a fitted plug and incubated for 30 days in a darkened 25° C. incubator. Assays are scored by the number of dead pupae or adult flies per vial.

[1] = tested on: AS283 human lymphoma xenografts; test: Mouse Study V (xenograft with AS283 implants); format: in vivo, C.B.-17 SCID mice
Method: Six-week-old male SCID mice were implanted with fragments of AS283 human lymphoma tumors. The tumors were allowed to reach 75-198 mg in weight (75-198 mm^3 in size) before the start of treatment. The experiment consisted of two treatment groups and one vehicle-treated control group, with ten animals per group, for a total of 30 mice on the first day of treatment.
(§1) TK-112690 was administered by ip injection [twice every 2 days for 5 injections with six hour interval (q6h×2, q2d×5)] at a dosage of 30 mg/kg/injection. MTX was administered by ip injection q2d×5 at a dosage of 5.0 mg/kg/injection three hours after the TK-112690 injection. The control group was treated with both vehicles, which were administered on the corresponding compound schedules.
Six-week-old male C.B.-17 SCID mice were acclimated in the laboratories for seven days prior to experimentation. Thirty-to-forty mg fragments of AS283 human lymphoma tumor were implanted sc in mice near the right flank using a 12-gauge trocar needle and allowed to grow. Tumors were allowed to reach 75-198 mg in weight (75-198 mm^3 in size) before the start of treatment. A sufficient number of mice were implanted so that tumors in a weight range as narrow as possible were selected for the trial on the day of treatment initiation (day 8 after tumor implantation). Those animals selected with tumors in the proper size range were assigned to the various treatment groups so that the median tumor weights on the first day of treatment were as close to each other as possible (162 mg for all groups). The experiment consisted of two treatment groups and one vehicle-treated control group with ten animals per group for a total of 30 mice on the first day of treatment.
A 15 mg/mL solution of TK-112690 was prepared daily by dissolving the compound in 100% DMSO (by vortexing as needed) and then adding PBS for a 3 mg/mL dosing solution. The final composition of the vehicle was 20% DMSO/80% PBS. The 25 mg/mL stock solution of MTX for injection was diluted each day of injection with saline to a 0.75 mg/mL dosing solution. Both compounds were administered ip by exact body weight using an injection volume of 0.1 mL for every 10 g of body weight.
as §1, with “intraperitoneal (ip)” for “ip”
The sc tumors were measured and the animals were weighed thrice weekly starting the day of the first treatment. Tumor volume was determined by caliper measurements (mm) and using the formula for an ellipsoid sphere: L×W^2/2=mm^3, where L and W refer to the larger and smaller perpendicular dimensions collected at each measurement. This formula is also used to calculate tumor weight, assuming unit density (1 mm^3=1 mg).
The study was terminated twenty one days after tumor implantation. Any animal found moribund or any animal whose tumor reached 4,000 mg, ulcerated or was sloughed off was euthanized prior to study termination.

[2] = MTX alone 5.0 mg/kg/injection ip q2d×5, day 21
[3] = TK-112690 30 mg/kg/injection combined with MTX 5.0 mg/kg/injection, day 21

SMILES	effect of MTX on lethality in the flies (Drosophila melanogaster; 0.4 mg MTX alone vs saline, p<0.01)	Flies Alive (Number) (Drosophila melanogaster)	median tumor weight value, % of the control on day 21 ([1]; MTX alone 5.0 mg/kg/injection ip q2d×5) [%]	median tumor weight value smaller than the median at the start of treatment (162 mg) [1, 2] [mg]	median tumor weight value smaller than the median at the start of treatment (162 mg), % [1, 2] [%]	protection from MTX lethality in flies (viable flies plus pupae) (Drosophila melanogaster; 0.005 to 0.1 mg TK-112690 + 0.4 mg MTX, p<0.01 vs MTX alone or saline)	median tumor weight value smaller than the median at the start of treatment (162 mg) [1, 3] [mg]	median tumor weight value smaller than the median at the start of treatment (162 mg), % [1, 3] [%]	median tumor weight value, % of the control on day 21 ([1]; TK-112690 30 mg/kg/injection ip (q6h×2, q2d×5) combined with MTX 5.0 mg/kg/injection) [%]	tumor volumes, MTX+TK-112690 versus MTX ([1]; day 21, p=1.0)
CN(Cc1cnc2nc(N)nc(N)c2n1)c1ccc(C(=O)N[C@@H](CCC(=O)O)C(=O)O)cc1 [MTX, N-[4-[[(2,4-diamino-6-pteridinyl)methyl]methylamino]benzoyl]-L-glutamic acid, reference compound]	highly significant	0	2.8	40.0	24.7					
Cc1cn2c(nc1=O)O[C@H]1[C@H](O)[C@@H](CO)O[C@H]12 [TK-112690, 2,2′-anhydro-5-methyluridine]		8				highly significant	9.0	5.6	3.5	no statistical difference
